Assay results published in patent publication US11103619B2, “Anticalcification treatment for impantable biological tissues using calcitonin” (priority 2018, dated 2021).

Test system: Porcine aortic leaflets implanted subdermally in male Wistar rats
Experiment: Post-implantation calcium content of treated porcine aortic leaflets implanted subdermally in rats for 21 days, measured by atomic absorption
Type: in vivo
Conditions: for Cumulative results of post-implantation Ca concentration: mean ± STDEV, p < 0.05 vs Group I (Glut only, 126.95 ± 12.97); for Post implantation Ca Content: explanted after 21 days, mean
Protocol: In one embodiment, the method comprises placing the biological tissue for fixation and preservation in a buffered glutaraldehyde (Glut) solution 0.5% at pH 7.4, adding salmon synthetic calcitonin (CT), such as Miacalcic® of Novartis Hellas A.B.E. In this experiment, two different concentrations of calcitonin were tested. One with 1 unit/100 ml (1%) and the other with 10 units/100 ml (10%). The first fixation process lasted one hour, at a pressure between 2-3 mmHg and subsequently the biological tissues were embedded in an accordingly new solution for one week.
Porcine aortic leaflets were selected as fresh tissue from a local slaughter house and were cut radially in three parts. Following harvesting, the biological tissue is rinsed and maintained in cold Hepa saline solution (temperature between 4°-12° C.) between two to six hours.
Three groups of tissue were created. Group I (Glut only), Group II (Glut with 1% CT) and Group III (Glut with 10% CT). All tissues were then implanted subdermally in three sets of 8 (Group I), 9 (Group II) and 9 (Group III) male Wistar rats of 12 days old (Center for Experimental Surgery, Biomedical Research Foundation of the Academy of Athens). […] All tissues were rinsed three times in normal saline solution for 10 minutes each time before implantation. Each rat received four fragments of tissue at the dorsum, through four separate incisions (two at each side) each of 1 cm long, with a technique we have previously described elsewhere (Agathos E A et al: “In vivo calcification of glutaraldehyde fixed cardiac valve and pericardium of Phoca Groenlandica”: ASAIO 57(4):328-332, July/August 2011).
21 days later the rats were euthanized by inhalation of CO2. All procedures were approved by the Animal Care Committee of the Academy of Athens and performed according to the Guide for the Care and Use of Laboratory Animals prepared by the Institutes of Laboratory Animal Resources, National Research Council and published by the National Academy Press, revised 1996 (NIH publication No. 85-23). The tissues were retrieved and after rinsing with distilled water 3 times, were lyophilized at −40° C. at high vacuum pressure of approximately […] for 16 hours. The calcium content was then measured with flat atomic absorption technique.
For statistical analysis, the commercially available software package ANOVA Origin 8.0 for Windows (OriginLab Corporation, Northampton, Mass., USA) was used. P values of 0.05 or less were defined as a statistically significant difference.

## salmon synthetic calcitonin [CT]
Group II (1% CT)
  Ca concentration accumulation in the explanted tissues (fold, post vs pre implantation): 5.16 ×
Group II (1% CT), ns vs Group III
  Cumulative results of post-implantation Ca concentration: 24.69 ± 2.71
Group II: Glut with 1% CT
  Post implantation Ca Content: 24.69 mg Ca/gr tissue
Group III (10% CT)
  Ca concentration accumulation in the explanted tissues (fold, post vs pre implantation): 9.43 ×
Group III (10% CT), ns vs Group II
  Cumulative results of post-implantation Ca concentration: 27.16 ± 2.95
Group III: Glut with 10% CT
  Post implantation Ca Content: 27.16 mg Ca/gr tissue
